{
  "source": "patent US6362160B1",
  "about": "“Immunophilin-binding agents prevent glutamate neurotoxicity associated with vascular stroke and neurodegenerative diseases” (The Johns Hopkins University School of Medicine, priority 1993, dated 2002)",
  "key": {"[1]": {"tested_on": "primary cerebral cortical neuronal cultures", "experiment": "cells", "format": "cell-based", "experimental": "Methods: Primary neuronal cultures from cortex were prepared from fetal Sprague-Dawley rats gestation day 13-14. After dissection, the cells were dissociated by trituration, counted, and plated in 15 mm multi-well (Nunc) plates coated with polyornithine at a density of 3-4×10^5 cells per well. Proliferation of non-neuronal cells was inhibited by applying 10 μg of 5-fluor-2′-deoxyuridine 4 days after plating for a total of 3 days. Neurons were maintained in modified Eagle's medium (MEM), 5% horse serum, 2 mM glutamine in 8% CO2, humidified at 37° C. Media was changed twice a week. Mature neurons (greater than 21 days in culture) were used in all experiments.\nNeurotoxicity was determined by exposing the neurons to the various test solutions as previously described (Dawson, et al., Proc. Natl. Acad. Sci., USA, 88:6368-6371 (1991)). Prior to exposure, the cells were washed 3 times with a Tris-buffered control solution (CSS) containing 120 mM NaCl, 5.4 mM KCl, 1.8 mM CaCl2, 25 mM Tris-HCl, 15 mM glucose at pH 7.4. […] Rapamycin (RAPA) was applied 5 min. prior to and during the application of FK-506 and the excitatory amino acids. Following immunosuppressant drug pretreatment, NMDA and quisqualate were applied to the cells for 5 min., then the cells were washed with CSS and replaced with MEM, 21 mM glucose for 24 hr. in the incubator. Exposures to kainate were performed in MEM, 21 mM glucose for 24 hr. in the incubator. NMDA, quisqualate, and kainate were also applied to the neurons without immunosuppressant drug pretreatment. The effect of N-Arg (L-nitroarginine) on NMDA neurotoxicity was assessed as described (Dawson, et al., Proc. Natl. Acad. Sci., USA, 88:6368-6371 (1991)). Twenty to 24 hr. after exposure to test solutions, the neurons were exposed to 0.4% trypan blue in CSS to stain the residue of non-viable cells and to assess toxicity. Viable and non-viable cells were counted with approximately 500-1,500 cells counted per well. At least two separate experiments utilizing four separate wells were performed for each data point shown. A minimum of 4,000-12,000 neurons were counted for each data point. In some experiments photomicrographs were made before and after treatment using a transparent grid at the bottom of each culture plate. Viable and non-viable neurons in identical fields were counted by an observer blinded to study design and treatment protocol."}, "[2]": {"tested_on": "cGMP formation in primary neuronal cortical cultures", "experiment": "cGMP levels in primary neuronal cortical cultures", "format": "cell-based, rat", "experimental": "Methods: Primary neuronal cortical cultures were treated under identical conditions as those used for assessment of neurotoxicity except for the addition of 100 μM isobutylmethylxanthine (IBMX) to all wells to inhibit phosphodiesterases. […] Following ether extraction, cGMP was assayed utilizing an Amersham ^125 I-assay kit according to the manufacturer's instructions. Data represent the mean (±S.E.M.) of 6-12 wells (2-3 different plating of cultures) in duplicate. Statistical significance was determined by the Student's t-test, *p≦0.005."}, "[3]": {"tested_on": "NMDA elicited Ca2+ currents", "experiment": "NMDA elicited Ca2+ currents in cortical cultures", "format": "cell-based, rat", "details": "FK-506 500 nM (data not shown)"}},
  "data": [
    {"smiles": "C=CC[C@@H]1/C=C(\\C)C[C@H](C)C[C@H](OC)[C@H]2O[C@@](O)(C(=O)C(=O)N3CCCC[C@H]3C(=O)O[C@H](/C(C)=C/[C@@H]3CC[C@@H](O)[C@H](OC)C3)[C@H](C)[C@@H](O)CC1=O)[C@H](C)C[C@@H]2OC", "note": "[FK-506]", "values": [
      {"measurement": "% Cell Death (± S.E.M.)", "setting": "[1]; 100 μM Kainate + 500 nM FK-506", "result": "88.1 ± 3.8", "unit": "%"},
      {"measurement": "% Cell Death (± S.E.M.)", "setting": "[1]; 500 μM Glutamate + 500 nM FK-506", "result": "*40.6 ± 3.9%"},
      {"measurement": "% Cell Death (± S.E.M.)", "setting": "[1]; 500 μM NMDA + 500 pM FK-506", "result": "78.3 ± 4.7", "unit": "%"},
      {"measurement": "% Cell Death (± S.E.M.)", "setting": "[1]; 500 μM NMDA + 1 nM FK-506", "result": "77.1 ± 4.0", "unit": "%"},
      {"measurement": "% Cell Death (± S.E.M.)", "setting": "[1]; 500 μM NMDA + 10 nM FK-506", "result": "68.5 ± 11.2", "unit": "%"},
      {"measurement": "% Cell Death (± S.E.M.)", "setting": "[1]; 500 μM NMDA + 25 nM FK-506", "result": "*67.2 ± 4.1%"},
      {"measurement": "% Cell Death (± S.E.M.)", "setting": "[1]; 500 μM NMDA + 50 nM FK-506", "result": "*61.9 ± 5.8%"},
      {"measurement": "% Cell Death (± S.E.M.)", "setting": "[1]; 500 μM NMDA + 100 nM FK-506", "result": "*40.0 ± 9.1%"},
      {"measurement": "% Cell Death (± S.E.M.)", "setting": "[1]; 500 μM NMDA + 500 nM FK-506", "result": "**29.7 ± 5.8%"},
      {"measurement": "% Cell Death (± S.E.M.)", "setting": "[1]; 500 μM NMDA + 1 μM FK-506", "result": "**29.2 ± 4.1%"},
      {"measurement": "% Cell Death (± S.E.M.)", "setting": "[1]; 500 μM Quisqualate + 500 nM FK-506", "result": "90.5 ± 4.4", "unit": "%"},
      {"measurement": "EC50", "setting": "[1]; Rattus norvegicus, applied 5 min prior to and during 5 min NMDA application, read-out: concentration at which 50% protection from NMDA neurotoxicity is evident", "result": "25 to 100", "unit": "nM"},
      {"measurement": "lowest concentration providing significant protection from NMDA neurotoxicity", "setting": "[1]; applied 5 min prior to and during 5 min NMDA application", "result": 25, "unit": "nM"},
      {"measurement": "% Basal cGMP Level (± S.E.M.)", "setting": "[2]; 300 μM SNP + 100 nM FK-506", "result": "509.9 ± 63.4", "unit": "%"},
      {"measurement": "% Basal cGMP Level (± S.E.M.)", "setting": "[2]; 500 μM NMDA + 100 nM FK-506", "result": "*89.3 ± 25.4%"},
      {"measurement": "reduction of the NMDA stimulation of cGMP levels", "setting": "[2]; FK-506 100 nM", "result": "approximately 80%"},
      {"measurement": "effect on NMDA elicited Ca2+ currents", "setting": "[3]", "result": "no effect"}
    ]},
    {"smiles": "N[C@@H](CCC(=O)O)C(=O)O", "note": "[Glutamate]", "values": [
      {"measurement": "% Cell Death (± S.E.M.)", "setting": "[1]; 500 μM Glutamate alone", "result": "76.0 ± 5.2", "unit": "%"}
    ]},
    {"smiles": "C=C(C)[C@H]1CN[C@H](C(=O)O)[C@H]1CC(=O)O", "note": "[Kainate, kainate]", "values": [
      {"measurement": "% Cell Death (± S.E.M.)", "setting": "[1]; 100 μM Kainate alone, 24 hr exposure", "result": "83.2 ± 6.3", "unit": "%"},
      {"measurement": "cell death elicited, compared with glutamate (500 μM)", "setting": "[1]; kainate 100 μM", "result": "as much cell death as glutamate"}
    ]},
    {"smiles": "CN[C@H](CC(=O)O)C(=O)O", "note": "[NMDA, N-methyl-D-aspartate]", "values": [
      {"measurement": "% Cell Death (± S.E.M.)", "setting": "[1]; 500 μM NMDA alone, 5 min exposure, counted 20-24 hr later", "result": "82.8 ± 4.3", "unit": "%"},
      {"measurement": "death of neurons", "setting": "[1]; 5 min exposure to NMDA, observed 24 hrs later", "result": "about 80%"},
      {"measurement": "% Basal cGMP Level (± S.E.M.)", "setting": "[2]; 500 μM NMDA alone, 5 min, 100 μM IBMX", "result": "552.6 ± 95.6", "unit": "%"}
    ]},
    {"smiles": "N[C@@H](Cn1oc(=O)[nH]c1=O)C(=O)O", "note": "[Quisqualate, quisqualate]", "values": [
      {"measurement": "% Cell Death (± S.E.M.)", "setting": "[1]; 500 μM Quisqualate alone, 5 min exposure", "result": "85.9 ± 6.0", "unit": "%"},
      {"measurement": "cell death elicited, compared with glutamate (500 μM)", "setting": "[1]; quisqualate 500 μM", "result": "as much cell death as glutamate"}
    ]}
  ]
}
